Experimental data taken from PMC8766756, “Insights on Cancer Cell Inhibition, Subcellular Activities, and Kinase Profile of Phenylacetamides Pending 1H-Imidazol-5-One Variants” (Frontiers in Pharmacology, 2022).

Target: T1, JAK3 (P52333) (Homo sapiens, UniProt P52333)
T1 construct: purchased PamGene (PamChip PTK array, Upstream Kinase Analysis)
T1 sequence (P52333 1-1124): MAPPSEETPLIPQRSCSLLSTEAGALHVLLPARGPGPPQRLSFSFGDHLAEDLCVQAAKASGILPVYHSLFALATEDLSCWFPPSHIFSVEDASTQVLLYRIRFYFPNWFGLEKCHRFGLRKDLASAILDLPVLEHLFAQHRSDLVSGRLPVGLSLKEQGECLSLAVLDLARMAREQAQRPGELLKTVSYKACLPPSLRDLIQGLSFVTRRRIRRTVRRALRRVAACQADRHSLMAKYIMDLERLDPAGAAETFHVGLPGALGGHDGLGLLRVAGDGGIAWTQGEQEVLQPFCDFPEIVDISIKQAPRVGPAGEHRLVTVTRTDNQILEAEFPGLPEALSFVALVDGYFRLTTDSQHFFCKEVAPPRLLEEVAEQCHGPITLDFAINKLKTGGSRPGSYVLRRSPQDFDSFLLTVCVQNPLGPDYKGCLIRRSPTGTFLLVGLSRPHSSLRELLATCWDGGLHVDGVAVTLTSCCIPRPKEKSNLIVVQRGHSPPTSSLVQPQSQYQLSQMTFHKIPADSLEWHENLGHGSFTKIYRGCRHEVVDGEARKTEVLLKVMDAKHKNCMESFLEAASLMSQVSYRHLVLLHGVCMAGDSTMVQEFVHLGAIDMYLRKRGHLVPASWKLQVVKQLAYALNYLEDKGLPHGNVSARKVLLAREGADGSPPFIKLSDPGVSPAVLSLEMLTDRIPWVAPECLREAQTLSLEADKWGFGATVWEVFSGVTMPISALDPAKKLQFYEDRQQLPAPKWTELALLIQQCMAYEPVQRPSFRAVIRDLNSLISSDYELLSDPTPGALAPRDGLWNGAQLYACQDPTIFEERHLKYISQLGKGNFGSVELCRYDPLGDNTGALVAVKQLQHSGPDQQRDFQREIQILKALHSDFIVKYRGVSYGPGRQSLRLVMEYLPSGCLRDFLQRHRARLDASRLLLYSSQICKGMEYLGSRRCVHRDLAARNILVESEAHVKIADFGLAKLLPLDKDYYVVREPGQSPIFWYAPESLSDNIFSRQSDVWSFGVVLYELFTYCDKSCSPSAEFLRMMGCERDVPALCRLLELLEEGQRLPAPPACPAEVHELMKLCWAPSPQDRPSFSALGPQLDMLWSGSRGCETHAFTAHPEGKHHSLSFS
Experiment: PamChip tyrosine kinase microarray
Type: biochemical
Details: 0.1 µM, HL60 lysate
Outline: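 HL60 (AML) cell lysate was spiked with compound at 0.001, 0.01, 0.1, 1, 10 and 50 µM, or 2% v/v DMSO as control, then profiled in technical replicates on a tyrosine kinase peptide array of 196 phosphosites. Kinase activity was inferred from peptide-set changes using an upstream kinase tool.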

With COc1ccc(/C=C2\N=C(C)N(c3ccc(CC(=O)NCc4ccccc4)cc3)C2=O)cc1 [Compound 4c, (Z)-N-Benzyl-2-(4-(4-(4-methoxybenzylidene)-2-methyl-5-oxo-4,5-dihydro-1H-imidazol-1-yl)phenyl)acetamide] the “Mean Final score (Kinase score)” value was 1.746, the “Mean Kinase Statistic” value was -1.15 and the “Mean Significance Score” value was 1.478. For the same compound, the “Mean Specificity Score” value was 0.2986.
